Measurements: PubChem BioAssay AID330 (DTP/NCI, 2004)
Several values for one entry are separate records, joined by “and”; a condition that tells them apart may be missing. Equal values may be shown once. Inconclusive results and toxic doses are left out. The calls were made as follows: active = survival T/C of 150% or more; inactive = T/C below 125% in these data.

System: P388 leukemia ip, CD2F1 mice, survival T/C
Experiment: NCI In Vivo Anticancer Drug Screen. Data for tumor model P388 Leukemia (intraperitoneal) in CD2F1 (CDF1) mice
Conditions: endpoint: median survival time, higher = longer survival
How it was run: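 Mice carrying the transplanted tumor received test compound or vehicle. Survival was recorded in each group, and the value is the treated-group measurement divided by that of the vehicle-treated control group.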

[1] = dose: 50.0 mg/kg/injection, schedule: Q01DX009 (ip), vehicle: Klucel (hydroxypropylcellulose) (HPC)
[2] = dose: 100.0 mg/kg/injection, schedule: Q01DX009 (ip), vehicle: Klucel (hydroxypropylcellulose) (HPC)
[3] = dose: 200.0 mg/kg/injection, schedule: Q01DX009 (ip), vehicle: Klucel (hydroxypropylcellulose) (HPC)
[4] = dose: 50.0 mg/kg/injection, schedule: Q01DX009 (ip), vehicle: saline
[5] = dose: 50.0 mg/kg/injection, schedule: Q01DX009 (ip), vehicle: saline with Tween-80
[6] = dose: 50.0 mg/kg/injection, schedule: Q01DX005 (ip), vehicle: Klucel (hydroxypropylcellulose) (HPC)
[7] = dose: 100.0 mg/kg/injection, schedule: Q01DX005 (ip), vehicle: Klucel (hydroxypropylcellulose) (HPC)
[8] = dose: 200.0 mg/kg/injection, schedule: Q01DX005 (ip), vehicle: Klucel (hydroxypropylcellulose) (HPC)
[9] = dose: 100.0 mg/kg/injection, schedule: Q01DX009 (ip), vehicle: saline
[10] = dose: 200.0 mg/kg/injection, schedule: Q01DX009 (ip), vehicle: saline

Measured: T/C

O=C(OC1CSC=CSC1)c1ccccc1
inactive: [1] 104 % of control | [2] 109 % of control | [3] 110 % of control

[Cl][Eu]([Cl])[Cl]
inactive: [4] 89 % of control

CCOC(=O)c1ccc(NC(=O)Nc2nc3c(Cl)cccc3s2)cc1
inactive: [5] 104 % of control | dose: 100.0 mg/kg/injection, schedule: Q01DX009 (ip), vehicle: saline with Tween-80 94 % of control | dose: 200.0 mg/kg/injection, schedule: Q01DX009 (ip), vehicle: saline with Tween-80 87 % of control

Nc1ccc(O)c2c1C(=O)c1c(O)c(S(=O)(=O)O)cc(N)c1C2=O
inactive: dose: 25.0 mg/kg/injection, schedule: Q01DX005 (ip), vehicle: Klucel (hydroxypropylcellulose) (HPC) 108 % of control | [6] 102 % of control | [7] 105 % of control | [8] 102 % of control

O=c1[nH]nc(-c2ccc([N+](=O)[O-])o2)o1
inactive: dose: 6.25 mg/kg/injection, schedule: Q01DX009 (ip), vehicle: saline with Tween-80 101 % of control | dose: 12.5 mg/kg/injection, schedule: Q01DX009 (ip), vehicle: saline with Tween-80 106 % of control | dose: 25.0 mg/kg/injection, schedule: Q01DX009 (ip), vehicle: saline with Tween-80 97 % of control | [5] 99 % of control

CC1=CC=CC2=NC(=O)CCN12
inactive: dose: 100.0 mg/kg/injection, schedule: Q04DX003 (ip), vehicle: saline with Tween-80 100 % of control | dose: 200.0 mg/kg/injection, schedule: Q04DX003 (ip), vehicle: saline with Tween-80 100 % of control

CN(C)CC(=O)Nc1ccc2c(c1)C(=O)c1ccc(NC(=O)CN(C)C)cc1C2=O
inactive: [6] 101 % of control | [7] 97 % of control | [8] 99 % of control

CC1=NCc2nn(C)nc2N1
inactive: [4] 100 % of control | [9] 100 % of control | [10] 97 % of control

C/C=C/C#CC#C/C=C/C=C/CC
inactive: dose: 12.5 mg/kg/injection, schedule: Q01DX009 (ip), vehicle: Klucel (hydroxypropylcellulose) (HPC) 104 % of control | dose: 25.0 mg/kg/injection, schedule: Q01DX009 (ip), vehicle: Klucel (hydroxypropylcellulose) (HPC) 98 % of control | [1] 103 % of control | [2] 98 % of control

CSCCC(NC(C)=O)C(C)=O (stereo not given)
inactive: [4] 110 % of control | [9] 109 % of control | [10] 105 % of control

CCn1c2ccccc2c2cc(NS(=O)(=O)c3ccccc3)ccc21
inactive: [1] 103 % of control | [2] 103 % of control | [3] 100 % of control

[CH3][Sn]([CH3])([Cl])[Cl].c1ccc(-c2nnc(-c3ccccn3)nc2-c2ccccc2)cc1
inactive: dose: 60.0 mg/kg/injection, schedule: Q01DX005 (ip), vehicle: Klucel (hydroxypropylcellulose) (HPC) 95 % of control | dose: 120.0 mg/kg/injection, schedule: Q01DX005 (ip), vehicle: Klucel (hydroxypropylcellulose) (HPC) 94 % of control | dose: 240.0 mg/kg/injection, schedule: Q01DX005 (ip), vehicle: Klucel (hydroxypropylcellulose) (HPC) 89 % of control

CN(C)CCSc1sc(N)nc1-c1ccccc1
inactive: [4] 100 % of control | [9] 98 % of control | [10] 114 % of control

CN(C)c1c([N+](=O)[O-])cc2[nH]cnc2c1[N+](=O)[O-]
inactive: dose: 3.12 mg/kg/injection, schedule: Q04DX003 (ip), vehicle: saline with Tween-80 103 % of control | dose: 6.25 mg/kg/injection, schedule: Q04DX003 (ip), vehicle: saline with Tween-80 103 % of control | dose: 12.5 mg/kg/injection, schedule: Q04DX003 (ip), vehicle: saline with Tween-80 105 % of control

CC1N2CCc3ccccc3C2C2c3ccccc3CCN21 (stereo not given)
inactive: dose: 12.5 mg/kg/injection, schedule: Q01DX001 (ip), vehicle: suspension in saline 111 % of control | dose: 25.0 mg/kg/injection, schedule: Q01DX001 (ip), vehicle: suspension in saline 111 % of control | dose: 50.0 mg/kg/injection, schedule: Q01DX001 (ip), vehicle: suspension in saline 102 % of control and 118 % of control
